Results taken from patent US20040110763A1, “Pyrazolopyridine compound and pharmaceutical use thereof” (priority 2000, published 2004).

Experiments:
human A1 receptor = target: T1, human A1 receptor (Homo sapiens, UniProt P30542); assay: Adenosine antagonistic activity, radioligand binding, A1 receptor; conditions: [3H]DPCPX 4.5 nM
T1 sequence (P30542 1-326): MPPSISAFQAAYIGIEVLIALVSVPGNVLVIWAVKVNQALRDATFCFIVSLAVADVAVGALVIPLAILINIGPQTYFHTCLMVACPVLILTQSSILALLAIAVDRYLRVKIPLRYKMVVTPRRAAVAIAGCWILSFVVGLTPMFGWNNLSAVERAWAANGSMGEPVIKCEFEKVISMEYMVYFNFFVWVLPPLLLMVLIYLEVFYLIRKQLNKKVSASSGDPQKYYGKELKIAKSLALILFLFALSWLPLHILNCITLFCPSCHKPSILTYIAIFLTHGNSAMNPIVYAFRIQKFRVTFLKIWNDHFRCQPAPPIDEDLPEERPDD
Protocol: (§1) Test 1: Adenosine Antagonistic Activity
(§2) The adenosine antagonistic activity [Ki(nM)] of the test compound was examined by radioligand binding techniques using 8-cyclopentyl-1,3-dipropylxanthine, [dipropyl-2,3-^3H(N)] ([^3H]DPCPX, 4.5 nM) for human A1 receptor and [^3H]CGS 21680 (20 nM) for human A2a receptor.

human A2a receptor = human A2a receptor (Homo sapiens, UniProt P29274); assay: Adenosine antagonistic activity, radioligand binding, A2a receptor; conditions: [3H]CGS 21680 20 nM
Chain of human A2a receptor (P29274 whole entry): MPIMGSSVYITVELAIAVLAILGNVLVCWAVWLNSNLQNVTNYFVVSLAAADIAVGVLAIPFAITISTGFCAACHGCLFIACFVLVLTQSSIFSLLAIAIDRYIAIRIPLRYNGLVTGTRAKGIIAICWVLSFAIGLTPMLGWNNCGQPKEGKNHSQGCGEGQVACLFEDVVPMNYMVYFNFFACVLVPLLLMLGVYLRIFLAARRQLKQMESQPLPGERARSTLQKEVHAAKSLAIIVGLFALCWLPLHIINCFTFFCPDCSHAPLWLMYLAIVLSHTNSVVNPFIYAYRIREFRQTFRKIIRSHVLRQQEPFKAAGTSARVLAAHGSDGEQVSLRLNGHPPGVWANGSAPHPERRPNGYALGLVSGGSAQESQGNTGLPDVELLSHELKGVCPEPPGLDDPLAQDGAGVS
Protocol: as §1, §2

ddY mice = assay: Anticatalepsy activity in mouse (haloperidol-induced catalepsy); type: in vivo; conditions: 3.2 mg/kg orally, ddY mice n=7; haloperidol 0.32 mg/kg i.p. 30 min after compound; measured 30 min after injection, bar test up to 30 sec
Protocol: Test 2: Anticatalepsy Activity in Mouse
The test compound (3.2 mg/kg) was administered orally with ddY mice (n=7). Then, haloperidol (0.32 mg/kg) was injected intraperitoneally 30 min. after the administration of the compound. Thirty min. after the injection, the cataleptic responses of mice were measured. The forelimbs of each mouse were placed on a 3 cm high, 3 mm wide horizontal bar, and the duration of cataleptic posture was measured for up to 30 sec.

SMILES	melting point	Ki (human A1 receptor)	Ki (human A2a receptor)	Manifestation rate of catalepsy (number of mouse) (ddY mice)
COc1ccn2nc(-c3ccccc3)c(-c3ccc(=O)n(C(C)C)n3)c2c1 [Example 2, 5-Methoxy-3-(3-oxo-2-isopropyl-2,3-dihydropyridazin-6-yl)-2-phenylpyrazolo[1,5-a]pyridine]	180.5 to 181.5 °C	0.15 nM	1.38 nM	0/7
CC(C)n1nc(-c2c(-c3ccccc3)nn3ccc(OCCN(C)C)cc23)ccc1=O [Example 4, 5-(2-Dimethylamino)ethoxy-3-(3-oxo-2-isopropyl-2,3-dihydropyridazin-6-yl)-2-phenylpyrazolo[1,5-a]pyridine]	138 to 139 °C	0.98 nM	2.35 nM	0/7
CC(C)n1nc(-c2c(-c3ccccc3)nn3ccc(C(=O)N(C)C)cc23)ccc1=O [Example 72, N,N-dimethyl-3-(3-oxo-2-isopropyl-2,3-dihydropyridazin-6-yl)-2-phenylpyrazolo[1,5-a]pyridine-5-carboxamide]	–	0.25 nM	1.68 nM	0/7
CC(C)n1nc(-c2c(-c3ccccc3)nn3ccc(N4CCN(C)CC4)cc23)ccc1=O [Example 96, 5-(4-methyl-1-piperazinyl)-3-(3-oxo-2-isopropyl-2,3-dihydropyridazin-6-yl)-2-phenylpyrazolo[1,5-a]pyridine]	170 to 171 °C	0.24 nM	1.28 nM	0/7
CCCCNC(=O)c1ccn2nc(-c3ccccc3)c(-c3ccc(=O)n(C(C)C)n3)c2c1 [Example 143, N-(n-Butyl)-3-(3-oxo-2-isopropyl-2,3-dihydropyridazin-6-yl)-2-phenylpyrazolo[1,5-a]pyridine-5-carboxamide]	185 to 186 °C	–	–	–
CC(C)n1nc(-c2c(-c3ccccc3)nn3ccc(N)cc23)ccc1=O [Example 146, 5-amino-3-(3-oxo-2-isopropyl-2,3-dihydropyridazin-6-yl)-2-phenylpyrazolo[1,5-a]pyridine]	196 to 197 °C	–	–	–
CC(C)n1nc(-c2c(-c3ccccc3)nn3ccc(NS(C)(=O)=O)cc23)ccc1=O [Example 150, 5-Methylsulfonylamino-3-(3-oxo-2-isopropyl-2,3-dihydropyridazin-6-yl)-2-phenylpyrazolo[1,5-a]pyridine]	193 to 194 °C	–	–	–
CC(C)n1nc(-c2c(-c3ccccc3)nn3ccc(N4CCCC4=O)cc23)ccc1=O [Example 153, 5-(2-oxo-1-pyrrolidinyl)-3-(3-oxo-2-isopropyl-2,3-dihydropyridazin-6-yl)-2-phenylpyrazolo [1,5-a]pyridine]	266 to 267 °C	–	–	–
COCN(COC)c1ccn2nc(-c3ccccc3)c(-c3ccc(=O)n(C(C)C)n3)c2c1 [Example 154, 5-[bis(methoxymethyl)amino]-3-(3-oxo-2-isopropyl-2,3-dihydropyridazin-6-yl)-2-phenylpyrazolo[1,5-a]pyridine]	148 to 150 °C	–	–	–
CC(=O)Nc1cccc2c(-c3ccc(=O)n(C(C)C)n3)c(-c3ccccc3)nn12 [Example 187, 7-Acetylamino-3-(3-oxo-2-isopropyl-2,3-dihydropyridazin-6-yl)-2-phenylpyrazolo[1,5-a]pyridine]	92 to 96 °C	–	–	–
COc1cccn2nc(-c3ccccc3)c(-c3ccc(=O)n(C(C)C)n3)c12 [Example 194, 4-Methoxy-3-(3-oxo-2-isopropyl-2,3-dihydropyridazin-6-yl)-2-phenylpyrazolo[1,5-a]pyridine]	185 to 186 °C	–	–	–
CC(C)n1nc(-c2c(-c3ccccc3)nn3cccc(O)c23)ccc1=O [Example 195, 4-Hydroxy-3-(3-oxo-2-isopropyl-2,3-dihydropyridazin-6-yl)-2-phenylpyrazolo[1,5-a]pyridine]	229 to 230 °C	–	–	–
CCOc1cccn2nc(-c3ccccc3)c(-c3ccc(=O)n(C(C)C)n3)c12 [Example 196, 4-ethoxy-3-(3-oxo-2-isopropyl-2,3-dihydropyridazin-6-yl)-2-phenylpyrazolo[1,5-a]pyridine]	157 to 158 °C	–	–	–
CCCOc1cccn2nc(-c3ccccc3)c(-c3ccc(=O)n(C(C)C)n3)c12 [Example 197, 4-n-Propoxy-3-(3-oxo-2-isopropyl-2,3-dihydropyridazin-6-yl)-2-phenylpyrazolo [1,5-a]pyridine]	176 to 177 °C	–	–	–
CC(C)n1nc(-c2c(-c3ccccc3)nn3cccc(OCCN(C)C)c23)ccc1=O [Example 198, 4-(2-(Dimethylamino)ethoxy)-3-(3-oxo-2-isopropyl-2,3-dihydropyridazin-6-yl)-2-phenylpyrazolo[1,5-a]pyridine]	137 to 138 °C	–	–	–

Now from value to compound, other results behind:

melting point	Ki (human A1 receptor)	Ki (human A2a receptor)	SMILES	Manifestation rate of catalepsy (number of mouse) (ddY mice)
> 250 °C	0.14 nM	1.05 nM	CC(C)n1nc(-c2c(-c3ccccc3)nn3ccc(O)cc23)ccc1=O [Example 3, 5-Hydroxy-3-(3-oxo-2-isopropyl-2,3-dihydropyridazin-6-yl)-2-phenylpyrazolo[1,5-a]pyridine]	–
140.5 to 141.5 °C	0.42 nM	1.44 nM	CC(C)n1nc(-c2c(-c3ccccc3)nn3ccc(Oc4ccccn4)cc23)ccc1=O [Example 31, 5-(2-pyridinyloxy)-3-(3-oxo-2-isopropyl-2,3-dihydropyridazin-6-yl)-2-phenylpyrazolo[1,5-a]pyridine]	0/7
193 to 194 °C	–	–	CC(C)n1nc(-c2c(-c3ccccc3)nn3ccc(C(=O)NCc4ccccn4)cc23)ccc1=O [Example 144, N-(2-Pyridinylmethyl)-3-(3-oxo-2-isopropyl-2,3-dihydropyridazin-6-yl)-2-phenylpyrazolo[1,5-a]pyridine-5-carboxamide]	–
208 to 210 °C	0.48 nM	1.03 nM	CC(C)n1nc(-c2c(-c3ccccc3)nn3ccc(NC(=O)OC(C)(C)C)cc23)ccc1=O [Example 145, tert-butyl 3-(3-oxo-2-isopropyl-2,3-dihydropyridazin-6-yl)-2-phenylpyrazolo[1,5-a]pyridin-5-ylcarbamate]	0/7
221 to 222 °C	–	–	CC(=O)Nc1ccn2nc(-c3ccccc3)c(-c3ccc(=O)n(C(C)C)n3)c2c1 [Example 147, 5-acetylamino-3-(3-oxo-2-isopropyl-2,3-dihydropyridazin-6-yl)-2-phenylpyrazolo[1,5-a]pyridine]	–
266 to 267 °C	–	–	CC(C)n1nc(-c2c(-c3ccccc3)nn3ccc(NC(=O)c4ccccc4)cc23)ccc1=O [Example 148, 5-Benzoylamino-3-(3-oxo-2-isopropyl-2,3-dihydropyridazin-6-yl)-2-phenylpyrazolo[1,5-a]pyridine]	–
199 to 200 °C	–	–	CC(C)C(=O)Nc1ccn2nc(-c3ccccc3)c(-c3ccc(=O)n(C(C)C)n3)c2c1 [Example 149, 5-(2-Methylpropanoylamino)-3-(3-oxo-2-isopropyl-2,3-dihydropyridazin-6-yl)-2-phenylpyrazolo[1,5-a]pyridine]	–
213 to 214 °C	–	–	COC(=O)Nc1ccn2nc(-c3ccccc3)c(-c3ccc(=O)n(C(C)C)n3)c2c1 [Example 151, Methyl 3-(3-oxo-2-isopropyl-2,3-dihydropyridazin-6-yl)-2-phenylpyrazolo[1,5-a]pyridin-5-ylcarbamate]	–
